In experiment [1] the test system is HeLa cells. Kind of experiment: Calculation of number of exosomes in exosome fractions from treated HeLa cells (NanoSight LM10). It is filed as cell-based, human. An excerpt:
(§1) More specifically, a currently commercially available human cervical cancer cell line (HeLa cells) was used as the test cultured cells.
(§2) α-MEM medium containing 10% FBS (product of Gibco) was used to culture the HeLa cells. Furthermore, FBS free of native exosomes derived from animal serum was used for the FBS.
(§3) A suitable amount of medium containing FBS at a concentration of 10% was placed in cell culture dishes having a diameter of 100 mm followed by seeding with HeLa cells so that the number of cells per dish was about 2×10^6 cells.
(§4) Next, the cells were cultured in a-MEM medium containing 10% FBS having the sample peptide suspended therein at a concentration of 5 μM under conditions of 5% CO2 at 37° C. for 48 hours.
Subsequently, the culture broth was obtained and subjected to ultracentrifugation to isolate and recover the exosomes. More specifically, centrifugation was carried out continuously as described below under conditions of 4° C. […]
The number of exosomes was calculated for each of the three exosome fractions produced as described above. More specifically, the numbers of exosome particles in the exosome fractions were counted followed by calculating the number of exosomes using NanoSight LM10 (Malvern Panalytical Ltd.).

The test system of experiment [2] is HeLa cells. Kind of experiment: Measurement of amount of protein per exosome particle (BCA assay, equation (1)). It is filed as cell-based, human.
Description: More specifically, the analyzing step preferably includes, for example, measurement of the total of amount of protein P (μg/mL) contained in the exosome fraction. A conventionally known method (such as BCA assay) can be used without any particular limitations to measure the amount of proteins. As a result, the average amount of protein per exosome, EP (μg), can be calculated based on the following equation (1). […]
as §1, §2, §3, §4
Subsequently, the culture broth was obtained and subjected to ultracentrifugation to isolate and recover the exosomes. […]
The amount of protein was measured for each of the three exosome fractions produced as described above. […]

Ends that are not written are not given here.

As to “FIGNLALSDLLAGVAYTANLLLKKRTLRKNDRKKR-CONH2 (FIGNLALSDLLAGVAYTANLLLKKRTLRKNDRKKR-NH2) [Example]”, the Exosome concentration with HeLa cells [1] (HeLa cells cultured 48 hours with 5 μM test substance, exosome fraction by ultracentrifugation, suspended in PBS) is 8.31e+08 mL⁻¹. The “number of exosomes (change, in words)” value with HeLa cells [1] (HeLa cells, 5 μM, 48 hours, versus Comparative Examples) was “increase considerably”. Further, the Amount of protein in the experiment with HeLa cells [2] (HeLa cells cultured 48 hours with 5 μM test substance, total protein by BCA divided by particle number) is on record as 5.9 ×10^−8 μg/exosome. In the experiment with HeLa cells [2] (HeLa cells, 5 μM, 48 hours, in comparison with Comparative Example 1 and Comparative Example 2), the “amount of proteins in the exosomes (change, in words)” value was “decreased considerably”.

Values taken from patent US11230586B2, “Exosome production method” (TOAGOSEI CO., LTD., priority 2019, dated 2022).
